Patent EP0170019A1, “Carbapenems having an ether group at position 4” (F. HOFFMANN-LA ROCHE & CO. Aktiengesellschaft, priority 1984, dated 1986)
In brackets after ≈: the same amount, converted by molar mass.

Experiments:
Assay in all cases: Minimal inhibitory concentration (MHK) on DST agar
Type in all cases: cell-based
[1] = system: Acinetobacter anitr. 5I-156; details: ANITR.5I156
Excerpt: (§1) Die minimalen Hemmkonzentrationen (MHK) der (4S,5S,6S)--6-[(R)-1-Hydroxyäthyl]-4-methoxy-7-oxo -1-azabicyclo-[3.2.0]hept-2-en-2-carbonsäure (Verbindung A), der (4R,5S,-6S)-6-[(R)-1-Hydroxyäthyl]-3-[[(S)-1-(1-iminoäthyl) -3-pyrrolidinyl]thio]-4-methoxy-7-oxo -1-azabicyclo[3.2.0]-hept-2-en -2-carbonsäure (Verbindung B), der (4R.5S,6S)-4--Aethoxy-6-[(R)-1-hydroxyäthyl]-3-[(S) -3-pyrrolidinyl- thio]-7-oxo-1-azabicyclo[3.2.0]hept-2-en -2-carbonsäure (Verbindung C) und der (4R,5S,6S)-4-Aethoxy-6-[(R)-1--hydroxyäthyl]-3-[[(S)-1 -(1-iminoäthyl)-3-pyrrolidinyl]-thio]-7-oxo-1 -azabicyclo[3.2.0]hept-2-en-2-carbonsäure (Verbindung D) gegen eine Reihe pathogener Mikroorganismen wurden auf DST-Agar (Diagnostic Sensitivity Test Agar) bestimmt. Die erhaltenen Resultate sind in der nachfolgenden Tabelle aufgeführt:
(§2) Die ß-Lactamase produzierenden Organismen sind mit einem ^* bezeichnet.

E. coli 1346 = details: Escherichia coli
Excerpt: as §1, §2

E. coli 1527 E* = details: Escherichia coli, E. coli 1527 E* (ß-Lactamase producing)
Excerpt: as §1, §2

E. coli 25922 = details: Escherichia coli
Excerpt: as §1, §2

E. coli TEM 1* = details: Escherichia coli, read-out: MHK
Excerpt: as §1, §2

[2] = system: Enterobacter cloacae 15M*; details: Enterobacter cloacae 15M* (ß-Lactamase producing)
Excerpt: as §1, §2

[3] = system: Enterobacter cloacae 908*; details: Enterobacter cloacae 908* (ß-Lactamase producing)
Excerpt: as §1, §2

Klebs. aerogenes 1082E* = details: Klebsiella aerogenes, Klebs. aerogenes 1082E* (ß-Lactamase producing)
Excerpt: as §1, §2

Klebs. pneumoniae 418* = details: Klebsiella pneumoniae, Klebs. pneumoniae 418* (ß-Lactamase producing)
Excerpt: as §1, §2

Prot. mirabilis 2117* = details: Proteus mirabilis, Prot. mirabilis 2117* (ß-Lactamase producing)
Excerpt: as §1, §2

Prot. mirabilis 29H = details: Proteus mirabilis
Excerpt: as §1, §2

Prot. vulgaris 1028* = details: Proteus vulgaris, Prot. vulgaris 1028* (ß-Lactamase producing)
Excerpt: as §1, §2

Pseudomonas aer. 1559E* = Pseudomonas aer. 1559E* (ß-Lactamase producing)
Excerpt: as §1, §2

Pseudomonas aer. BA* = Pseudomonas aer. BA* (ß-Lactamase producing)
Excerpt: as §1, §2

Salmonella typh. BA = system: Salmonella typh. BA
Excerpt: as §1, §2

[4] = system: Serratia marcescens 69438
Excerpt: as §1, §2

[5] = system: Serratia marcescens 803/15*; details: Serratia marcescens 803/15* (ß-Lactamase producing)
Excerpt: as §1, §2

Staph. aureus 6538 = details: Staphylococcus aureus
Excerpt: as §1, §2

Staph. aureus 887* = details: Staphylococcus aureus, Staph. aureus 887* (ß-Lactamase producing)
Excerpt: as §1, §2

Strept. faecalis 6 = details: Enterococcus faecalis
Excerpt: as §1, §2

SMILES | MIC [1] | MIC (E. coli 1346) | MIC (E. coli 1527 E*) | MIC (E. coli 25922) | MIC (E. coli TEM 1*) | MIC [2] | MIC [3] | MIC (Klebs. aerogenes 1082E*) | MIC (Klebs. pneumoniae 418*) | MIC (Prot. mirabilis 2117*) | MIC (Prot. mirabilis 29H) | MIC (Prot. vulgaris 1028*) | MIC (Pseudomonas aer. 1559E*) | MIC (Pseudomonas aer. BA*) | MIC (Salmonella typh. BA) | MIC [4] | MIC [5] | MIC (Staph. aureus 6538) | MIC (Staph. aureus 887*) | MIC (Strept. faecalis 6)
CCO[C@H]1C(S[C@H]2CCNC2)=C(C(=O)O)N2C(=O)[C@H]([C@@H](C)O)[C@@H]12 [Verbindung C, (4R.5S,6S)-4--Aethoxy-6-[(R)-1-hydroxyäthyl]-3-[(S) -3-pyrrolidinyl-thio]-7-oxo-1-azabicyclo[3.2.0]hept-2-en-2-carbonsäure] | 1 µg/mL (≈ 2.92 µM) | 0.5 µg/mL (≈ 1.46 µM) | 0.25 µg/mL (≈ 0.73 µM) | 0.5 µg/mL (≈ 1.46 µM) | 0.5 µg/mL (≈ 1.46 µM) | 1 µg/mL (≈ 2.92 µM) | 1 µg/mL (≈ 2.92 µM) | 2 µg/mL (≈ 5.84 µM) | 2 µg/mL (≈ 5.84 µM) | 16 µg/mL (≈ 46.7 µM) | 32 µg/mL (≈ 93.5 µM) | 32 µg/mL (≈ 93.5 µM) | 64 µg/mL (≈ 187 µM) | 32 µg/mL (≈ 93.5 µM) | 0.5 µg/mL (≈ 1.46 µM) | 8 µg/mL (≈ 23.4 µM) | 4 µg/mL (≈ 11.7 µM) | 0.25 µg/mL (≈ 0.73 µM) | 0.5 µg/mL (≈ 1.46 µM) | 32 µg/mL (≈ 93.5 µM)
CO[C@H]1C=C(C(=O)O)N2C(=O)[C@H]([C@@H](C)O)[C@@H]12 [Verbindung A, (4S,5S,6S)--6-[(R)-1-Hydroxyäthyl]-4-methoxy-7-oxo-1-azabicyclo-[3.2.0]hept-2-en-2-carbonsäure] | 2 µg/mL (≈ 8.8 µM) | 0.5 µg/mL (≈ 2.2 µM) | 0.5 µg/mL (≈ 2.2 µM) | 1 µg/mL (≈ 4.4 µM) | 1 µg/mL (≈ 4.4 µM) | 1 µg/mL (≈ 4.4 µM) | 1 µg/mL (≈ 4.4 µM) | 1 µg/mL (≈ 4.4 µM) | 0.5 µg/mL (≈ 2.2 µM) | 4 µg/mL (≈ 17.6 µM) | 8 µg/mL (≈ 35.2 µM) | 4 µg/mL (≈ 17.6 µM) | > 32 µg/mL | 32 µg/mL (≈ 141 µM) | 1 µg/mL (≈ 4.4 µM) | 2 µg/mL (≈ 8.8 µM) | 2 µg/mL (≈ 8.8 µM) | 0.5 µg/mL (≈ 2.2 µM) | 1 µg/mL (≈ 4.4 µM) | 32 µg/mL (≈ 141 µM)
CCO[C@H]1C(S[C@H]2CCN(C(C)=N)C2)=C(C(=O)O)N2C(=O)[C@H]([C@@H](C)O)[C@@H]12 [Verbindung D, (4R,5S,6S)-4-Aethoxy-6-[(R)-1--hydroxyäthyl]-3-[[(S)-1-(1-iminoäthyl)-3-pyrrolidinyl]-thio]-7-oxo-1-azabicyclo[3.2.0]hept-2-en-2-carbonsäure] | 2 µg/mL (≈ 5.22 µM) | 1 µg/mL (≈ 2.61 µM) | 1 µg/mL (≈ 2.61 µM) | 2 µg/mL (≈ 5.22 µM) | 0.5 µg/mL (≈ 1.3 µM) | 4 µg/mL (≈ 10.4 µM) | 4 µg/mL (≈ 10.4 µM) | 2 µg/mL (≈ 5.22 µM) | 2 µg/mL (≈ 5.22 µM) | 16 µg/mL (≈ 41.7 µM) | 32 µg/mL (≈ 83.4 µM) | 16 µg/mL (≈ 41.7 µM) | 64 µg/mL (≈ 167 µM) | 64 µg/mL (≈ 167 µM) | 2 µg/mL (≈ 5.22 µM) | 8 µg/mL (≈ 20.9 µM) | 8 µg/mL (≈ 20.9 µM) | 0.25 µg/mL (≈ 0.652 µM) | 0.5 µg/mL (≈ 1.3 µM) | 32 µg/mL (≈ 83.4 µM)
CO[C@H]1C(S[C@H]2CCN(C(C)=N)C2)=C(C(=O)O)N2C(=O)[C@H]([C@@H](C)O)[C@@H]12 [Verbindung B, (4R,5S,-6S)-6-[(R)-1-Hydroxyäthyl]-3-[[(S)-1-(1-iminoäthyl) -3-pyrrolidinyl]thio]-4-methoxy-7-oxo-1-azabicyclo[3.2.0]-hept-2-en-2-carbonsäure] | 0.4 µg/mL (≈ 1.08 µM) | 0.4 µg/mL (≈ 1.08 µM) | 0.4 µg/mL (≈ 1.08 µM) | 0.8 µg/mL (≈ 2.17 µM) |  | 0.8 µg/mL (≈ 2.17 µM) | 0.8 µg/mL (≈ 2.17 µM) | 0.8 µg/mL (≈ 2.17 µM) | 0.4 µg/mL (≈ 1.08 µM) | 12.5 µg/mL (≈ 33.8 µM) | 25 µg/mL (≈ 67.7 µM) | 12.5 µg/mL (≈ 33.8 µM) | 25 µg/mL (≈ 67.7 µM) | 25 µg/mL (≈ 67.7 µM) | 0.8 µg/mL (≈ 2.17 µM) | 3.1 µg/mL (≈ 8.39 µM) | 3.1 µg/mL (≈ 8.39 µM) | 0.1 µg/mL (≈ 0.271 µM) | 0.2 µg/mL (≈ 0.541 µM) | 12.5 µg/mL (≈ 33.8 µM)
